# From patent publication US8754242B2, “Herbicides” (Syngenta Crop Protection LLC, priority 2007, dated 2014)
# Legend:
# Format in all cases: in vivo
# [1] = tested on: Lolium perenne (LOLPE); assay: Test Example 1 post-emergence herbicidal activity; details: 360 h, rate 125 g/ha, evaluated 15 days later, read-out: Post-emergence activity LOLPE (100=total damage to plant; 0=no damage to plant)
# Outline: (§1)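 Once sown in standard soil, pots received an aqueous spray of the formulated active ingredient, either after one day or after ten days of controlled glasshouse growth. Plants then grew under optimum greenhouse conditions. Herbicidal effect was assessed visually 15 (post-emergence) or 20 (pre-emergence) days later, 100 meaning total plant damage.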
# [2] = tested on: Echinochloa crus-galli (ECHCG); assay: Test Example 1 post-emergence herbicidal activity; details: 360 h, rate 125 g/ha, evaluated 15 days later, read-out: Post-emergence activity ECHCG (100=total damage to plant; 0=no damage to plant)
# Outline: as §1
# [3] = tested on: Setaria faberi (SETFA); assay: Test Example 1 post-emergence herbicidal activity; details: 360 h, rate 125 g/ha, evaluated 15 days later, read-out: Post-emergence activity SETFA (100=total damage to plant; 0=no damage to plant)
# Outline: as §1
# [4] = tested on: Avena fatua (AVEFA); assay: Test Example 1 post-emergence herbicidal activity; details: 360 h, rate 125 g/ha, evaluated 15 days later, read-out: Post-emergence activity AVEFA (100=total damage to plant; 0=no damage to plant)
# Outline: as §1
# [5] = tested on: Digitaria sanguinalis (DIGSA); assay: Test Example 1 post-emergence herbicidal activity; details: 360 h, rate 125 g/ha, evaluated 15 days later, read-out: Post-emergence activity DIGSA (100=total damage to plant; 0=no damage to plant)
# Outline: as §1
# [6] = tested on: Alopecurus myosuroides (ALOMY); assay: Test Example 1 post-emergence herbicidal activity; details: 360 h, rate 125 g/ha, evaluated 15 days later, read-out: Post-emergence activity ALOMY (100=total damage to plant; 0=no damage to plant)
# Outline: as §1
# [7] = tested on: Lolium perenne (LOLPE); assay: Test Example 1 pre-emergence herbicidal activity; details: Lolium perenne, 480 h, rate 250 g/ha, evaluated 20 days later, read-out: Pre-emergence activity LOLPE (100=total damage to plant; 0=no damage to plant)
# Outline: as §1
# [8] = tested on: Echinochloa crus-galli (ECHCG); assay: Test Example 1 pre-emergence herbicidal activity; details: Echinochloa crus-galli, 480 h, rate 250 g/ha, evaluated 20 days later, read-out: Pre-emergence activity ECHCG (100=total damage to plant; 0=no damage to plant)
# Outline: as §1
# [9] = tested on: Setaria faberi (SETFA); assay: Test Example 1 pre-emergence herbicidal activity; details: Setaria faberi, 480 h, rate 250 g/ha, evaluated 20 days later, read-out: Pre-emergence activity SETFA (100=total damage to plant; 0=no damage to plant)
# Outline: as §1
# [10] = tested on: Avena fatua (AVEFA); assay: Test Example 1 pre-emergence herbicidal activity; details: Avena fatua, 480 h, rate 250 g/ha, evaluated 20 days later, read-out: Pre-emergence activity AVEFA (100=total damage to plant; 0=no damage to plant)
# Outline: as §1
# [11] = tested on: Digitaria sanguinalis (DIGSA); assay: Test Example 1 pre-emergence herbicidal activity; details: Digitaria sanguinalis, 480 h, rate 250 g/ha, evaluated 20 days later, read-out: Pre-emergence activity DIGSA (100=total damage to plant; 0=no damage to plant)
# Outline: as §1
# [12] = tested on: Alopecurus myosuroides (ALOMY); assay: Test Example 1 pre-emergence herbicidal activity; details: Alopecurus myosuroides, 480 h, rate 250 g/ha, evaluated 20 days later, read-out: Pre-emergence activity ALOMY (100=total damage to plant; 0=no damage to plant)
# Outline: as §1
SMILES,pest or weed control at 125 g/ha [1] [%],pest or weed control at 125 g/ha [2] [%],pest or weed control at 125 g/ha [3] [%],pest or weed control at 125 g/ha [4] [%],pest or weed control at 125 g/ha [5] [%],pest or weed control at 125 g/ha [6] [%],pest or weed control at 250 g/ha [7] [%],pest or weed control at 250 g/ha [8] [%],pest or weed control at 250 g/ha [9] [%],pest or weed control at 250 g/ha [10] [%],pest or weed control at 250 g/ha [11] [%],pest or weed control at 250 g/ha [12] [%]
CCc1cc(C)cc(CC)c1C1=C(O)[C@@H]2[C@@H]3O[C@@H](C[C@H]3c3ccc(F)c(F)c3)[C@@H]2C1=O (racemic) [Example T178],90,100,100,90,100,100,80,100,100,40,80,70
CCc1cc(C)cc(CC)c1C1=C(O)[C@H]2[C@@H](C1=O)[C@@H]1CC[C@@]2(COCC#N)O1 [Example T27],80,100,100,90,100,100,70,100,100,70,90,70
CCOC[C@]12CC[C@H](O1)[C@@H]1C(=O)C(c3c(CC)cc(C)cc3CC)=C(O)[C@@H]12 [Example T18],80,100,100,100,100,100,100,100,100,100,100,100
CCCNC(=O)OC[C@]12CC[C@H](O1)[C@@H]1C(=O)C(c3c(CC)cc(C)cc3CC)=C(O)[C@@H]12 [Example T21],70,100,60,70,30,90,80,80,70,30,10,90
CCc1cc(C)cc(CC)c1C1=C(O)[C@@H]2[C@@H]3O[C@@H](C[C@H]3c3ccc(Cl)cc3C)[C@@H]2C1=O (racemic) [Example T165],80,100,90,30,70,80,80,80,70,20,50,70
CCOCOC[C@]12CC[C@H](O1)[C@@H]1C(=O)C(c3c(CC)cc(C)cc3CC)=C(O)[C@@H]12 [Example T19],90,100,100,100,90,100,100,100,100,90,90,100
Cc1cc(C)c(C2=C(O)[C@H]3[C@@H](C2=O)[C@@H]2C=C[C@@]3(CO)O2)c(C)c1 (racemic) [Example T37],20,80,70,20,50,50,30,30,0,30,20,60
Cc1cc(C)c(C2=C(O)[C@@H]3[C@@H]4O[C@@H](C[C@H]4c4ncc(C(F)(F)F)cc4C(F)(F)F)[C@@H]3C2=O)c(C)c1 [Example T203],10,50,0,10,50,20,60,90,70,20,70,20
CCc1cc(C)cc(CC)c1C1=C(O)[C@@H]2[C@@H]3O[C@@H](C[C@H]3c3ccc(Cl)cc3)[C@@H]2C1=O [Example T155],60,100,100,70,100,90,80,60,60,50,70,60
CCc1cc(C)cc(CC)c1C1=C(OC(=O)C(C)(C)C)[C@H]2[C@@H](C1=O)[C@@H]1CC[C@H]2O1 (racemic) [Example P14],90,100,100,90,100,90,100,100,100,100,100,100
C#CCOC(=O)OC1=C(c2c(C)cc(C)cc2C)C(=O)[C@@H]2[C@H]1[C@@]1(C)CC[C@]2(C)O1 (racemic) [Example P36],60,90,80,70,80,60,100,100,80,80,80,70
Cc1cc(C)c(C2=C(O)[C@H]3[C@@H](C2=O)[C@]2(C)C=C[C@@]3(C)O2)c(C)c1 [Example T34],30,80,80,30,80,40,60,40,80,30,60,70
Cc1cc(C)c(C2=C(O)[C@@H]3[C@@H]4O[C@@H](C[C@@H]4C)[C@@H]3C2=O)c(C)c1 [Example T97],80,100,100,90,100,90,100,100,90,90,100,100
